assay: In vitro anti-inflammatory activity assessed as inhibition of heat-induced albumin denaturtion incubated for 15 min followed by heating measured after 10 min; format: functional

| IC50 [ppm] | SMILES |
| --- | --- |
| 316.686 | CC1=C(C(=O)Nc2ccccc2)C(c2ccccc2)n2c(s/c(=C\c3ccc(N(C)C)cc3)c2=O)=N1 (configuration not stated) |
| 242.144 | COc1ccc(/C=c2\oc3n(c2=O)C(c2ccc(Cl)cc2)C(C(=O)Nc2ccccc2)=C(C)N=3)cc1 (configuration not stated) |
| 330.312 | CC1=C(C(=O)Nc2ccccc2)C(c2ccccc2)n2c(o/c(=C\c3ccc(N(C)C)cc3)c2=O)=N1 (configuration not stated) |
| 253.376 | CC1=C(C(=O)Nc2ccccc2)C(c2ccccc2)n2c(s/c(=C\c3ccc([N+](=O)[O-])cc3)c2=O)=N1 (configuration not stated) |
| 232.597 | COc1ccc(/C=c2\sc3n(c2=O)C(c2ccc(Cl)cc2)C(C(=O)Nc2ccccc2)=C(C)N=3)cc1 (configuration not stated) |
| 226.318 | CC1=C(C(=O)Nc2ccccc2)C(c2ccccc2)n2c(s/c(=C\c3ccc(Cl)cc3)c2=O)=N1 (configuration not stated) |
| 261.464 | CC1=C(C(=O)Nc2ccccc2)C(c2ccccc2)n2c(o/c(=C\c3ccc(Cl)cc3)c2=O)=N1 (configuration not stated) |
| 250.38 | COc1ccc(/C=c2\sc3n(c2=O)C(c2ccc([N+](=O)[O-])cc2)C(C(=O)Nc2ccccc2)=C(C)N=3)cc1 (configuration not stated) |
| 192.486 | CC1=C(C(=O)Nc2ccccc2)C(c2ccc(Cl)cc2)n2c(o/c(=C\c3ccc([N+](=O)[O-])cc3)c2=O)=N1 (configuration not stated) |
| 304.179 | COc1ccc(/C=c2\oc3n(c2=O)C(c2ccccc2)C(C(=O)Nc2ccccc2)=C(C)N=3)cc1 (configuration not stated) |
| 309.862 | CC1=C(C(=O)Nc2ccccc2)C(c2ccc(Cl)cc2)n2c(s/c(=C\c3ccc(N(C)C)cc3)c2=O)=N1 (configuration not stated) |
| 314.544 | COc1ccc(C2C(C(=O)Nc3ccccc3)=C(C)N=c3o/c(=C\c4ccc(N(C)C)cc4)c(=O)n32)cc1 (configuration not stated) |
| 254.99 | COc1ccc(C2C(C(=O)Nc3ccccc3)=C(C)N=c3s/c(=C\c4ccc([N+](=O)[O-])cc4)c(=O)n32)cc1 (configuration not stated) |
| 283.525 | CC1=C(C(=O)Nc2ccccc2)C(c2ccccc2)n2c(o/c(=C\c3ccc([N+](=O)[O-])cc3)c2=O)=N1 (configuration not stated) |
| 188.24 | O=C([O-])Cc1ccccc1Nc1c(Cl)cccc1Cl.[Na+] [DICLOFENAC SODIUM] |
| 336.75 | CC1=C(C(=O)Nc2ccccc2)C(c2ccc([N+](=O)[O-])cc2)n2c(s/c(=C\c3ccc(N(C)C)cc3)c2=O)=N1 (configuration not stated) |
| 319.524 | CC1=C(C(=O)Nc2ccccc2)C(c2ccc(Cl)cc2)n2c(o/c(=C\c3ccc(N(C)C)cc3)c2=O)=N1 (configuration not stated) |
| 194.611 | CC1=C(C(=O)Nc2ccccc2)C(c2ccc([N+](=O)[O-])cc2)n2c(s/c(=C\c3ccc(Cl)cc3)c2=O)=N1 (configuration not stated) |
| 301.677 | COc1ccc(C2C(C(=O)Nc3ccccc3)=C(C)N=c3s/c(=C\c4ccc(N(C)C)cc4)c(=O)n32)cc1 (configuration not stated) |
| 339.35 | CC1=C(C(=O)Nc2ccccc2)C(c2ccc([N+](=O)[O-])cc2)n2c(o/c(=C\c3ccc(N(C)C)cc3)c2=O)=N1 (configuration not stated) |
| 259.104 | COc1ccc(/C=c2\oc3n(c2=O)C(c2ccc([N+](=O)[O-])cc2)C(C(=O)Nc2ccccc2)=C(C)N=3)cc1 (configuration not stated) |
| 190.42 | CC1=C(C(=O)Nc2ccccc2)C(c2ccc(Cl)cc2)n2c(s/c(=C\c3ccc([N+](=O)[O-])cc3)c2=O)=N1 (configuration not stated) |
| 210.874 | COc1ccc(C2C(C(=O)Nc3ccccc3)=C(C)N=c3s/c(=C\c4ccc(Cl)cc4)c(=O)n32)cc1 (configuration not stated) |
| 196.05 | CC1=C(C(=O)Nc2ccccc2)C(c2ccc([N+](=O)[O-])cc2)n2c(o/c(=C\c3ccc(Cl)cc3)c2=O)=N1 (configuration not stated) |
| 236.954 | COc1ccc(C2C(C(=O)Nc3ccccc3)=C(C)N=c3o/c(=C\c4ccc(Cl)cc4)c(=O)n32)cc1 (configuration not stated) |
| 272.584 | COc1ccc(C2C(C(=O)Nc3ccccc3)=C(C)N=c3o/c(=C\c4ccc([N+](=O)[O-])cc4)c(=O)n32)cc1 (configuration not stated) |
| 291.257 | COc1ccc(/C=c2\sc3n(c2=O)C(c2ccccc2)C(C(=O)Nc2ccccc2)=C(C)N=3)cc1 (configuration not stated) |
